The record followed here is patent publication US11878965B2, “Inhibitors of peptidylarginine deiminases” (Gilead Sciences, Inc., priority 2020, dated 2024).

SMILES strings stand for the structures.

Chain of human PAD4 (Q9UM07 2-663): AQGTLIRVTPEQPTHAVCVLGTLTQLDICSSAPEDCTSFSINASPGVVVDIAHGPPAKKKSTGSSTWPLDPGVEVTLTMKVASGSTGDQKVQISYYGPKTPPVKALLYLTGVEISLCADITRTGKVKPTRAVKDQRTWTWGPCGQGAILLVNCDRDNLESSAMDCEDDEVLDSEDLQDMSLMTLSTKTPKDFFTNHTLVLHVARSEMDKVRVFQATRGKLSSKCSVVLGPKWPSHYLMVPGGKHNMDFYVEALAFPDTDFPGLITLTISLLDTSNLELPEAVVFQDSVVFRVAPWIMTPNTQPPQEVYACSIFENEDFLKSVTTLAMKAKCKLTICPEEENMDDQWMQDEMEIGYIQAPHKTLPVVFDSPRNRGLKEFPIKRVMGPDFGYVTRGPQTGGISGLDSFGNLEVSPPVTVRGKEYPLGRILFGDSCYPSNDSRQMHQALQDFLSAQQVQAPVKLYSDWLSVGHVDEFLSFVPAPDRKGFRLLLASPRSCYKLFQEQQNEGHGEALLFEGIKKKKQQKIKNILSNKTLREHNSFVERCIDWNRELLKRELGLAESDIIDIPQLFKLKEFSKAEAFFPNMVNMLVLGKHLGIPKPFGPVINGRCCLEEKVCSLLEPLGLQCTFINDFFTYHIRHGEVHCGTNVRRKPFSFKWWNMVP

For the test, the target named is human PAD4 (Homo sapiens (Human), UniProt Q9UM07). Description: In Vitro PAD4 BAEE Biochemical Assay. The settings on record: recombinant PAD4 5 nM, 2 mM calcium chloride, 3 mM BAEE substrate; geometric mean of multiple experiments. The procedure, abridged:
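Recombinant human PAD4 (His-SUMO tag removed, E. coli-expressed), 5 nM, preincubated with compound and 2 mM CaCl2 30 min at 25 °C in MOPS pH 7.6 with DTT; 3 mM BAEE added for 2 h at 25 °C, EDTA stop. Released ammonia detected by o-phthalaldehyde/DTT fluorescence (ex 405, em 535 nm).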
The IC50 is the concentration at which inhibition is half-maximal. `COc1cc(C(=O)N2C[C@H](N)[C@@H]3CC[C@H]2C3)cc2nc(-c3cc4ccc([C@@H](C)NC(=O)c5ccnc(Cl)c5)nc4n3CC3CC3)n(C)c12` [Example 298, N-((R)-1-(2-(5-((1S,4R,5R)-4-amino-2-azabicyclo[3.2.1]octane-2-carbonyl)-7-methoxy-1-methyl-1H-benzo[d]imidazol-2-yl)-1-(cyclopropylmethyl)-1H-pyrrolo[2,3-b]pyridin-6-yl)ethyl)-2-chloroisonicotinamide]: the half-inhibitory concentration (IC50) came out at 86.4 nM. The result for `COc1cc(C(=O)N2C[C@H](N)[C@@H]3CC[C@H]2C3)cc2nc(-c3cc4ccc([C@@H](C)NC(=O)C56C7C8C9C7C5C9C86)nc4n3CC3CC3)n(C)c12` (stereo partly drawn) [Example 299, N-((R)-1-(2-(5-((1S,4R,5R)-4-amino-2-azabicyclo[3.2.1]octane-2-carbonyl)-7-methoxy-1-methyl-1H-benzo[d]imidazol-2-yl)-1-(cyclopropylmethyl)-1H-pyrrolo[2,3-b]pyridin-6-yl)ethyl)cubane-1-carboxamide] reads 74.3 nM. Then `COc1cc(C(=O)N2C[C@H](N)[C@@H]3CC[C@H]2C3)cc2nc(-c3cc4ccc([C@@H](C)NC(=O)c5ccc(C(C)(C)O)nc5)nc4n3CC3CC3)n(C)c12` [Example 300, N-((R)-1-(2-(5-((1S,4R,5R)-4-amino-2-azabicyclo[3.2.1]octane-2-carbonyl)-7-methoxy-1-methyl-1H-benzo[d]imidazol-2-yl)-1-(cyclopropylmethyl)-1H-pyrrolo[2,3-b]pyridin-6-yl)ethyl)-6-(2-hydroxypropan-2-yl)nicotinamide], with 72 nM.

Take `[2H]C1([2H])[C@H](N)[C@@H]2CC[C@@H](C2)N1C(=O)c1cc(OC)c2c(c1)nc(-c1cc3ccc(C(C)NC(=O)C45CC(F)(C4)C5)nc3n1CC1CC1)n2C` (stereo partly drawn) [Example 301, N-((R)-1-(2-(5-((1S,4R,5R)-4-amino-2-azabicyclo[3.2.1]octane-2-carbonyl-3,3-d2)-7-methoxy-1-methyl-1H-benzo[d]imidazol-2-yl)-1-(cyclopropylmethyl)-1H-pyrrolo[2,3-b]pyridin-6-yl)ethyl)-3-fluorobicyclo[1.1.1]pentane-1-carboxamide]: the IC50 worked out at 65.8 nM. Turning to `C[C@@H](NC(=O)C1(C#N)CC1)c1ccc2cc(-c3nc4cc(C(=O)N5C[C@H](N)[C@@H]6CC[C@H]5C6)cc(F)c4n3C3CC3)n(CC3CC3)c2n1` [Example 303, N-((R)-1-(2-(5-((1S,4R,5R)-4-amino-2-azabicyclo[3.2.1]octane-2-carbonyl)-1-cyclopropyl-7-fluoro-1H-benzo[d]imidazol-2-yl)-1-(cyclopropylmethyl)-1H-pyrrolo[2,3-b]pyridin-6-yl)ethyl)-1-cyanocyclopropane-1-carboxamide], the half-maximal inhibitory concentration (IC50) is 84.1 nM. As to `C[C@@H](NC(=O)C1CCOCC1)c1ccc2cc(-c3nc4cc(C(=O)N5C[C@H](N)[C@@H]6CC[C@H]5C6)cc(F)c4n3C3CC3)n(CC3CC3)c2n1` [Example 304, N-((R)-1-(2-(5-((1S,4R,5R)-4-amino-2-azabicyclo[3.2.1]octane-2-carbonyl)-1-cyclopropyl-7-fluoro-1H-benzo[d]imidazol-2-yl)-1-(cyclopropylmethyl)-1H-pyrrolo[2,3-b]pyridin-6-yl)ethyl)tetrahydro-2H-pyran-4-carboxamide], the IC50 turned out to be 48.6 nM.

With `COc1cc(C(=O)N2C[C@H](N)[C@@H]3CC[C@H]2C3)cc2nc(-c3cc4ccc([C@@H](C)NC(=O)c5cccnc5C(F)F)nc4n3CC3CC3)n(C)c12` [Example 305, N-((R)-1-(2-(5-((1S,4R,5R)-4-amino-2-azabicyclo[3.2.1]octane-2-carbonyl)-7-methoxy-1-methyl-1H-benzo[d]imidazol-2-yl)-1-(cyclopropylmethyl)-1H-pyrrolo[2,3-b]pyridin-6-yl)ethyl)-2-(difluoromethyl)nicotinamide], the IC50 was found to be 72.7 nM. The result for `COc1cc(C(=O)N2C[C@H](N)[C@@H]3CC[C@H]2C3)cc2nc(-c3cc4ccc([C@@H](C)NC(=O)c5cccnc5C(F)(F)F)nc4n3CC3CC3)n(C)c12` [Example 306, N-((R)-1-(2-(5-((1S,4R,5R)-4-amino-2-azabicyclo[3.2.1]octane-2-carbonyl)-7-methoxy-1-methyl-1H-benzo[d]imidazol-2-yl)-1-(cyclopropylmethyl)-1H-pyrrolo[2,3-b]pyridin-6-yl)ethyl)-2-(trifluoromethyl)nicotinamide] reads 92.8 nM; that for `COc1cc(C(=O)N2C[C@H](N)[C@@H]3CC[C@H]2C3)cc2nc(-c3cc4ccc([C@@H](C)NC(=O)c5cccc(C(F)F)n5)nc4n3CC3CC3)n(C)c12` [Example 307, N-((R)-1-(2-(5-((1S,4R,5R)-4-amino-2-azabicyclo[3.2.1]octane-2-carbonyl)-7-methoxy-1-methyl-1H-benzo[d]imidazol-2-yl)-1-(cyclopropylmethyl)-1H-pyrrolo[2,3-b]pyridin-6-yl)ethyl)-6-(difluoromethyl) picolinamide], 382 nM; that for `COc1cc(C(=O)N2C[C@H](N)[C@@H]3CC[C@H]2C3)cc2nc(-c3cc4ccc([C@@H](C)NC(=O)c5ccc(C#CC(C)(C)S(C)(=O)=O)nc5)nc4n3CC3CC3)n(C)c12` [Example 308, N-((R)-1-(2-(5-((1S,4R,5R)-4-amino-2-azabicyclo[3.2.1]octane-2-carbonyl)-7-methoxy-1-methyl-1H-benzo[d]imidazol-2-yl)-1-(cyclopropylmethyl)-1H-pyrrolo[2,3-b]pyridin-6-yl)ethyl)-6-(3-methyl-3-(methylsulfonyl)but-1-yn-1-yl)nicotinamide], 66.2 nM.

`COc1cc(C(=O)N2C[C@H](N)[C@@H]3CC[C@H]2C3)cc2nc(-c3cc4ccc([C@@H](C)NC(=O)c5ccc(C(F)F)nc5)nc4n3CC3CC3)n(C3CC3)c12` [Example 309, N-((R)-1-(2-(5-((1S,4R,5R)-4-amino-2-azabicyclo[3.2.1]octane-2-carbonyl)-1-cyclopropyl-7-methoxy-1H-benzo[d]imidazol-2-yl)-1-(cyclopropylmethyl)-1H-pyrrolo[2,3-b]pyridin-6-yl)ethyl)-6-(difluoromethyl)nicotinamide]: the IC50 is 111 nM. As to `C[C@@H](NC(=O)c1ccc(C(F)F)nc1)c1ccc2cc(-c3nc4cc(C(=O)N5C[C@H](N)[C@@H]6CC[C@H]5C6)cc(F)c4n3C3CC3)n(CC3CC3)c2n1` [Example 310, N-((R)-1-(2-(5-((1S,4R,5R)-4-amino-2-azabicyclo[3.2.1]octane-2-carbonyl)-1-cyclopropyl-7-fluoro-1H-benzo[d]imidazol-2-yl)-1-(cyclopropylmethyl)-1H-pyrrolo[2,3-b]pyridin-6-yl)ethyl)-6-(difluoromethyl)nicotinamide], the IC50 came out at 89.7 nM. `COc1cc(C(=O)N2C[C@H](N)[C@@H]3CC[C@H]2C3)cc2nc(-c3cc4ccc([C@@H](C)NC(=O)[C@@H]5CC5(F)F)nc4n3CC3CC3)n(C)c12` [Example 311, (S)-N-((R)-1-(2-(5-((1S,4R,5R)-4-amino-2-azabicyclo[3.2.1]octane-2-carbonyl)-7-methoxy-1-methyl-1H-benzo[d]imidazol-2-yl)-1-(cyclopropylmethyl)-1H-pyrrolo[2,3-b]pyridin-6-yl)ethyl)-2,2-difluorocyclopropane-1-carboxamide]: the IC50 is 67.6 nM.

With `COc1cc(C(=O)N2C[C@H](N)[C@@H]3CC[C@H]2C3)cc2nc(-c3cc4ccc([C@@H](C)NC(=O)[C@H]5CC5(F)F)nc4n3CC3CC3)n(C)c12` [Example 312, (R)-N-((R)-1-(2-(5-((1S,4R,5R)-4-amino-2-azabicyclo[3.2.1]octane-2-carbonyl)-7-methoxy-1-methyl-1H-benzo[d]imidazol-2-yl)-1-(cyclopropylmethyl)-1H-pyrrolo[2,3-b]pyridin-6-yl)ethyl)-2,2-difluorocyclopropane-1-carboxamide], the IC50 stood at 55.9 nM. `COc1cc(C(=O)N2C[C@H](N)[C@@H]3CC[C@H]2C3)cc2nc(-c3cc4ccc([C@@H](C)NC(=O)c5ccc(C(F)(F)F)nc5)nc4n3CC3CC3)n(C)c12` [Example 313, N-((R)-1-(2-(5-((1S,4R,5R)-4-amino-2-azabicyclo[3.2.1]octane-2-carbonyl)-7-methoxy-1-methyl-1H-benzo[d]imidazol-2-yl)-1-(cyclopropylmethyl)-1H-pyrrolo[2,3-b]pyridin-6-yl)ethyl)-6-(trifluoromethyl)nicotinamide]: the IC50 was determined as 113 nM. Consider `COc1cc(C(=O)N2C[C@H](N)[C@@H]3CC[C@H]2C3)cc2nc(-c3cc4ccc([C@@H](C)NC(=O)c5cnc(C(F)(F)F)nc5)nc4n3CC3CC3)n(C)c12` [Example 314, N-((R)-1-(2-(5-((1S,4R,5R)-4-amino-2-azabicyclo[3.2.1]octane-2-carbonyl)-7-methoxy-1-methyl-1H-benzo[d]imidazol-2-yl)-1-(cyclopropylmethyl)-1H-pyrrolo[2,3-b]pyridin-6-yl)ethyl)-2-(trifluoromethyl)pyrimidine-5-carboxamide], for which the IC50 is 140 nM. As for `COc1cc(C(=O)N2C[C@H](N)[C@@H]3CC[C@H]2C3)cc2nc(-c3cc4ccc([C@@H](C)NC(=O)c5cnc(C(F)F)nc5)nc4n3CC3CC3)n(C)c12` [Example 315, N-((R)-1-(2-(5-((1S,4R,5R)-4-amino-2-azabicyclo[3.2.1]octane-2-carbonyl)-7-methoxy-1-methyl-1H-benzo[d]imidazol-2-yl)-1-(cyclopropylmethyl)-1H-pyrrolo[2,3-b]pyridin-6-yl)ethyl)-2-(difluoromethyl)pyrimidine-5-carboxamide], the IC50 was 81.3 nM. Then `COc1cc(C(=O)N2C[C@H](N)[C@@H]3CC[C@H]2C3)cc2nc(-c3cc4ccc([C@@H](C)NC(=O)c5ccnc(C(F)(F)F)n5)nc4n3CC3CC3)n(C)c12` [Example 316, N-((R)-1-(2-(5-((1S,4R,5R)-4-amino-2-azabicyclo[3.2.1]octane-2-carbonyl)-7-methoxy-1-methyl-1H-benzo[d]imidazol-2-yl)-1-(cyclopropylmethyl)-1H-pyrrolo[2,3-b]pyridin-6-yl)ethyl)-2-(trifluoromethyl)pyrimidine-4-carboxamide], with 570 nM.
